# Tested on: P. falciparum 3D7 growth, pLDH absorbance
# Assay: P. falciparum 3D7 growth inhibition, dose response, strain 3D7 (AID 2305)
row,SMILES,IC50 [nM]
1,COc1cc(NC(=O)/C=C/c2cccc3cc[nH]c23)ccc1OCCN(C(C)C)C(C)C,270
2,CCn1cc2c3c(cc(C(=O)N[C@@H](Cc4ccccc4)[C@H](O)CNCc4cccc(OC)c4)cc31)N(C)S(=O)(=O)CC2,670
3,CC(C)Cn1cc(C2CCN(CCN3CCC(CNC(=O)c4ccc(-c5ccc(C(F)(F)F)cc5)cc4)CC3)CC2)c2ccccc21,750
4,CCCCCCCOc1ccc(NC(=O)Nc2ccc(Cn3ncc(N4CCCNCC4)c(Cl)c3=O)cc2)cc1,920
5,Cc1cccc2[nH]c(-c3ccc(-c4cccc(CNCc5cccc(N)c5)c4)cc3)nc12,390
6,Cc1cc(=O)c(-c2ccc(Oc3cccc(OC(F)(F)F)c3)cc2)c(C)[nH]1,200
7,CN(C)CCCOc1cccc(NC(=O)Nc2ccc(-c3ccccc3)cc2)c1,870
8,O=C(NCC1CCC(C(=O)NC2CCCc3ccccc32)CC1)c1ccc(O)c(-c2ccc(Cl)c(Cl)c2)c1 (stereo unspecified),1020
9,c1csc(-c2nc(NCC3CCCO3)ncc2-c2ccsc2)n1 (stereo unspecified),490
10,COc1cc(CNCCCNc2nc3ncccc3[nH]2)c2[nH]cc(Br)c2c1,1160
11,COc1ccc2nccc([C@@H](O)CN3CCC(NCc4cc5c(cc4F)SCC(=O)N5)CC3)c2n1,1000
12,CC(C)CN1CCC(N(C)c2cc(NC(=O)c3cccc(F)c3)ccn2)CC1,850
13,COc1ccc(CNCc2ccccc2)cc1-c1ccc(S(=O)(=O)NCCN2CCCC2)c(F)c1,1140
14,O=C(NCCNc1nc(NCCNC(=O)Nc2ccccc2)c2ccc(=O)n(-c3c(F)cccc3F)c2n1)Nc1ccccc1,170
15,O=C1OC2(CN1CC1CCN(Cc3ccc(-n4ccnc4)cc3)C1)c1ccccc1-c1ccccc12 (stereo unspecified),980
16,Cc1cnc(Nc2ccccc2)nc1N[C@@H](CCCN)C(=O)Nc1ccccc1,810
17,CCc1cn2c3c(cc(C(=O)N[C@@H](Cc4ccccc4)[C@H](O)CN[C@@H](C)CC)cc13)N(C)S(=O)(=O)CC2,70
18,CC1CCN(C(=O)C(Cc2c[nH]c3ccccc23)NS(=O)(=O)c2ccc(Cl)cc2)CC1 (stereo unspecified),720
19,C=C1N(C)c2cc([N+](=O)[O-])c(N)cc2C1(C)C,490
20,O=C(Nc1ccc(Oc2ccccc2)cc1)NC1CCC(CN2CCC(c3c[nH]c4ccccc34)CC2)CC1 (stereo unspecified),570
21,Cc1cc(NC(=O)NCCN2CCC(NC(=O)c3ccc(Cl)cc3)CC2)c2ccccc2n1,380
22,Cn1cncc1C(=O)Nc1cccc(-c2ccc(-c3nc4ccc(C(F)(F)F)cc4[nH]3)cc2)c1,510
23,CC(C)(CN1CCCC1)CN(Cc1ccc(-c2ccc(C(F)(F)F)cc2)cc1)C(=O)Cn1c(CCc2cccc(F)c2F)nc(=O)c2ccccc21,790
24,CC(=O)c1ccc(NC(=O)CSc2nc(-c3ccccc3Cl)ns2)cc1,1130

row,SMILES,IC50 [nM]
1,CC(C)(Oc1c(C2CCN(CCCCNC(=O)c3ccc(-c4ccc(C#N)cc4)cc3)CC2)ccc2c1CCCC2)C(N)=O,700
2,Cn1ccnc1-c1nc2ccccn2c1NCC(=O)Nc1ccccc1N1CCCCC1,980
3,CN(c1cc(NC(=O)c2ccc(F)cc2)ccn1)C1CCN(Cc2cccc(C#N)c2)CC1,830
4,NC(N)=NN=Cc1c2ccccc2c(Cl)c2c(Cl)cccc12,880
5,Cc1ccc2nc(C)cc(NN=Cc3ccccc3[N+](=O)[O-])c2c1,170
6,O=C(Nc1cccc(F)c1)N[C@H]1CCN(CCCCCNC(=O)[C@@H]2C[C@H]2c2ccc(Cl)c(Cl)c2)C1,990
7,COc1ccc(CCN(C)CCOc2ccc(NC(=O)COc3ccc4sc5ccccc5c(=O)c4c3)cc2)cc1OC,1100
8,CC(C)(C)CNc1noc(-c2sccc2Br)n1,1120
9,O=C(NCCCCCN1CCC(c2c[nH]c3ccccc23)CC1)Nc1cccc(Br)c1,1110
10,COc1ccc2nc3cc(Cl)ccc3c(NCCN(C)C)c2c1,190
11,CC(=O)Nc1ccc(CNC2Cc3ccc(-c4ccc(Cl)c(Cl)c4)cc3C2)cc1 (stereo unspecified),1000
12,COc1ccc(-c2ccc([N+](=O)[O-])cc2C(=O)NCC(C)Oc2ccc(C(F)(F)F)cc2)cc1 (stereo unspecified),550
13,Cc1cc(N[C@@H](Cc2ccccc2)C(=O)NCc2cccc(F)c2)nc(NCCc2ccc(F)cc2)n1,650
14,N#Cc1ccc2c(c1)CCN(CCC1CCC(NC(=O)c3cc4ccc(Cl)cc4[nH]3)CC1)C2 (stereo unspecified),700
15,COc1ccc(-c2csc3ncnc(Cl)c23)cc1,780
16,O=[N+]([O-])c1ccc(-n2nc(-c3cccnc3)n(Cc3ccco3)c2=S)c(Cl)c1,200
17,COc1ccc2c(NN=Cc3ccc(F)cc3)cc(C)nc2c1,770
18,CN1CCN(CCCN(Cc2ccc(-c3cccc(CNC4CCCC4)c3)cc2)C(=O)/C=C/c2ccccc2)CC1,1330
19,c1cc(C2=N[C@H]3CCCC[C@@H]3N2)ccc1OCCCCCOc1ccc(C2=N[C@@H]3CCCC[C@H]3N2)cc1,230
20,COc1cc(NC(=O)/C=C/c2cc(F)cc(F)c2F)cc(OCCN2CCN(CCN3CCOCC3)CC2)c1,770
21,O=C(c1cccs1)N1N=C(c2cccs2)CC1c1cccc([N+](=O)[O-])c1 (stereo unspecified),820
22,Cc1cccc2[nH]c(-c3ccc(-c4cccc(CN5CCC(N)C5)c4)s3)nc12 (stereo unspecified),770
23,FC(F)(F)c1ccc2nccc(NN=Cc3cccc(Cl)c3)c2c1,820
24,Cc1cccc2[nH]c(-c3cccc(-c4cccc(NC(=O)CC5NC(=O)c6ccccc65)c4)c3)nc12 (stereo unspecified),1030

row,SMILES,IC50 [nM]
1,COc1ccc(-c2ccc(NC(=O)c3cccc(Cl)c3)cc2)cc1CN(C)CCN(C)C,780
2,CCCCN1C(=O)C(c2ccccc2)(c2ccccc2)N=C1N,1030
3,CC(C)c1ccc(NC(=O)Nc2ccc(CCNCCCc3ccccc3)cc2)cc1,760
4,Cc1cc(OCC2CCN(c3ncc(C(=O)Nc4ccccc4)cc3Cl)CC2)ccc1F,900
5,O=c1cc(-c2ccc3ccccc3c2)[nH]c2ccccc12,1160
6,Cc1nn(-c2ccnc3cc(Cl)ccc23)c(C)c1C(=O)NCc1cc(Cl)cc(Cl)c1,870
7,Cc1ccc(CNC(=O)[C@H](CC(C)C)Nc2cc(C)nc(NCC3CCCCC3)n2)cc1,930
8,CCN1CCc2c1cc(C(=O)N[C@@H](Cc1ccccc1)[C@H](O)CNC(C)(C)c1cccc(C(F)(F)F)c1)cc2N1CCCCS1(=O)=O,110
9,COc1ccc2c(c1)CCCC2C(C)NCC(O)c1cccc(C(F)(F)F)c1 (stereo unspecified),350
10,Cc1ccc(-c2ccn(Cc3cccc(OCc4ccccc4)c3)n2)cn1 (tested in a mixture with another compound),1180
11,O=C(NCc1ccc(F)cc1)c1ccc(N2CCN(c3ccncc3)CC2)cn1,890
12,CN(C)CCNCc1cccc(-c2ccc3c(Nc4ccc(Oc5ccccn5)cc4)ccnc3c2)c1,230
13,CC1(C)[C@H]2CC[C@@H](CNc3nc(NCC(=O)Nc4ccc5ccccc5c4)nc(N4CCC(N5CCCC5)CC4)n3)[C@@H]1C2,1190
14,CC(C)(CN)c1nc(-c2ccc(Br)c(O)c2)c(-c2ccncc2)[nH]1,970
15,CCC1(c2ccccc2)N=C(N)N(CCCc2ccccc2)C1=O (stereo unspecified),890
16,OC(CNCc1ccccc1OC(F)F)c1cccc(C(F)(F)F)c1 (stereo unspecified),760
17,COc1ccc(-c2ccc(NC(=O)c3ccc(C#N)cc3)cc2)cc1CN1CCC(O)CC1,580
18,Nc1nc(N)c2c(CCc3ccc4ccccc4c3)cccc2n1,690
19,CC(NC(C)c1cccc(Cl)c1)C(=O)Nc1cc(C(F)(F)F)ccc1N1CCOCC1 (stereo unspecified),1090
20,NC1=NCN(OCc2ccc(Cl)c(Cl)c2)C(N)=N1,190
21,CCOC(=O)C1CCN(CCOc2cc(NC(=O)/C=C/c3ccccc3Cl)ccc2Br)CC1,990
22,COc1ccc2nccc([C@@H](O)CN3CCC(NC(=O)c4cc5ccccc5[nH]4)CC3)c2c1,970
23,Cc1cc(NC(=O)Nc2ccc(C#N)cc2)c2ccccc2n1,570
24,Cc1cc(F)ccc1Nc1nc(N(C)c2ccccc2)c2cc(OCCCN(C)C)ccc2n1,720

row,SMILES,IC50 [nM]
1,Oc1c(C(Nc2nc3ccccc3s2)c2ccccc2)ccc2cccnc12 (stereo unspecified),650
2,Cc1onc(-c2ccccc2Cl)c1C(=O)Nc1cc(Cl)c(Cl)cc1Cl,1180
3,C#CCNCc1ccc(-c2ccc(-c3nc4ccc(C(F)(F)F)cc4[nH]3)s2)cc1,740
4,N#Cc1ccc(-c2ccc(OCC(O)CN3CCCN(Cc4cccc(O)c4Cl)CC3)cc2)cc1 (stereo unspecified),690
5,CCNc1cc(C)nc(Nc2ccc(NC(=O)c3ccco3)cc2)n1,1090
6,O=C(CCc1cnc[nH]1)Nc1cccc(-c2ccc(-c3nc4ccc(F)cc4[nH]3)cc2)c1,240
7,COc1ccc2c(NN=Cc3ccccc3Cl)cc(C)nc2c1,370
8,C=Cc1cc(OC)c2c(c1)c(=O)oc1c2cc(OC)c2c(O)ccc([C@H]3O[C@H]([C@@H](C)O)[C@H](O)[C@H]3O)c21,790
9,CCn1c(-c2nonc2N)nc2c(-c3cccc(Cl)c3)ncc(OCCCNCCc3cnc[nH]3)c21,980
10,COc1ccc(OCC(=O)Nc2cc(-c3nc4ccccc4[nH]3)ccc2Cl)cc1,900
11,CC1(C)N=C(N)N=C(N)N1OCc1nc(N)nc(Nc2ccccc2)n1,270
12,CS(=O)(=O)CCNCc1cccc(-c2ccc3c(Nc4cc(O)c(Cl)cc4F)ccnc3c2)c1,250
13,CCN1CCN(Cc2c(O)ccc3c(=O)c(Oc4cc(C)cc(C)c4)c(C(F)(F)F)oc23)CC1,770
14,COc1ccc(CN2CCC(N3CCc4cc(NC(=O)c5cc(C)on5)ccc43)C2)cc1Cl (stereo unspecified),940
15,COCCOc1nc(N)nc2ncc(Cc3cc(OC)ccc3OC)c(C)c12,430
16,CCCN(CCC)CCCNc1ccc(C(=O)Nc2ccc(C(C)C)cc2)cc1[N+](=O)[O-],710
17,CN(Cc1ccc(-c2ccc(C(F)(F)F)cc2)cc1)C(=O)Cn1c(CCc2cccc(F)c2F)nc(=O)c2ccc(N3CCN(CCN4CCCCC4)CC3)nc21,760
18,O=C(Nc1cccc(-c2cccc(-c3nc4ccc(C(F)(F)F)cc4[nH]3)c2)c1)c1ccoc1,280
19,Cc1cc(C(=O)Nc2ccc3c(c2)CCN3C2CCN(Cc3cc(F)cc(F)c3F)C2)no1 (stereo unspecified),280
20,Cc1cc(C(=O)NCc2ccc(-c3c(C)noc3C)cc2)n(-c2ccccc2)n1,820
21,Cc1cc(NC(=O)c2cccs2)ccc1OC1CCN(Cc2ccccc2)C1 (stereo unspecified),890
22,CN1CCCN(Cc2cccc(-c3cccc(NC(=O)c4ccc(Cl)cc4)c3)c2)CC1,920
23,O=C(/C=C/c1ccc(Cl)c(Cl)c1)NCCCCCN1CCC(NC(=O)Nc2cc(F)cc(F)c2)CC1,790
24,COc1cccc(C2CCN(CCN3CCC(NC(=O)c4ccc(-c5ccc(Cl)cc5)cc4)CC3)CC2)c1,1090
